Biological target: T1, human PAD4 (Homo sapiens, UniProt Q9UM07)
T1 construct: human PAD4 (NM_012387), A2P663, was PCR amplified; His-SUMO (N, cleaved yes); made in house; host or cells: E. coli BL21(DE3)
Test: In vitro PAD4 BAEE biochemical assay
Details: human PAD4, BAEE substrate; 5 nM PAD4, 2 mM calcium chloride, 3 mM BAEE; geometric mean of multiple experiments
Method in brief: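 Ammonia generated from BAEE serves as the readout, measured by o-phthalaldehyde after EDTA termination. Final conditions: 5 nM human PAD4 (SUMO tag cleaved), 2 mM CaCl2, 3 mM BAEE, pH 7.6 MOPS buffer, 25 °C for 2 h following a 30-min compound preincubation.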

T1 sequence (Q9UM07 2-663): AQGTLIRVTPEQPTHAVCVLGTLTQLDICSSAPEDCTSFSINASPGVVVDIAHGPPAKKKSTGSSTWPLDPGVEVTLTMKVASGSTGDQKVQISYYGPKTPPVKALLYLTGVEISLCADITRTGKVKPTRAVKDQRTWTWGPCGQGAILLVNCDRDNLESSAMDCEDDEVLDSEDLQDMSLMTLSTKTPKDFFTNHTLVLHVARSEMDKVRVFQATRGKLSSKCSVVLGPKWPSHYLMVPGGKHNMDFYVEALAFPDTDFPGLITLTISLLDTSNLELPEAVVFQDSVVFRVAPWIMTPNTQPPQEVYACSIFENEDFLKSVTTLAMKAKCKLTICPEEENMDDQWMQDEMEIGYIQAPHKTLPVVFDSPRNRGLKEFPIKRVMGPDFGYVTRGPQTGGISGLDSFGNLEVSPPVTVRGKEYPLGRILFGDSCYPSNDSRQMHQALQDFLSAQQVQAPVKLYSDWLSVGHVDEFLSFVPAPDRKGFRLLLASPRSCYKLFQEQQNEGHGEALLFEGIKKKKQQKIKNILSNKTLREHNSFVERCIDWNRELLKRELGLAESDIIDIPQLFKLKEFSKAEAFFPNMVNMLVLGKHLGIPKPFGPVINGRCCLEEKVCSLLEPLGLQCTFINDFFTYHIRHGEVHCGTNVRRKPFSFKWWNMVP

| Compound | IC50 [nM] |
| --- | --- |
| COc1cc(C(=O)N2[C@H]3CC[C@@H]2[C@H](N)C3)cc2nc(-c3cc4ccc([C@@H](C)NC(=O)c5ccccc5C)nc4n3CC3CC3)c(C)n12 [Example 121, ~{N}-[(1~{R})-1-[2-[7-[(1~{R},2~{R},4~{S})-2-amino-7-azabicyclo[2.2.1]heptane-7-carbonyl]-5-methoxy-3-methylimidazo [1,2-a]pyridin-2-yl]-1-(cyclopropylmethyl)pyrrolo [2,3-b]pyridin-6-yl]ethyl]-2-methylbenzamide] | 108 |
| (2~{S})-2-[2-[7-[(3~{R})-3- aminopiperidine-1- carbonyl]-5-methoxy-3- methylimidazo[1,2- a]pyridin-2-yl]-1- (cyclopropylmethyl)pyrrolo [2,3-b]pyridin-6-yl] oxy-~{N}- methylpropanamide [Example 630] | 9400 |
| COc1cc(C(=O)N2[C@H]3CC[C@@H]2[C@H](N)C3)cc2nc(-c3cc4ccc([C@@H](C)NC(=O)c5ccccc5)nc4n3CC3CC3)c(C3CC3)n12 [Example 142, ~{N}-[(1~{R})-1-[2-[7-[(1~{R},2~{R},4~{S})-2-amino-7-azabicyclo[2.2.1]heptane-7-carbonyl]-3-cyclopropyl-5-methoxyimidazo[1,2-a]pyridin-2-yl]-1-(cyclopropylmethyl)pyrrolo [2,3-b]pyridin-6-yl]ethyl] benzamide] | 121 |
| COc1cc(C(=O)N2[C@H]3CC[C@@H]2[C@H](N)C3)cc2nc(-c3cc4ccc([C@@H](C)NC(=O)C(C)C)nc4n3CC3CC3)c(C)n12 [Example 89, ~{N}-[(1~{R})-1-[2-[7-[(1~{R},2~{R},4~{S})-2-amino-7-azabicyclo[2.2.1]heptane-7-carbonyl]-5-methoxy-3-methylimidazo [1,2-a]pyridin-2-yl]-1-(cyclopropylmethyl)pyrrolo [2,3-b]pyridin-6-yl]ethyl]-2-methylpropanamide] | 40.1 |
| COc1cc(C(=O)N2CCC[C@@H](N)C2)cc2nc(-c3cc4ccc([C@@H](C)NC(=O)N5CC(O)C5)nc4n3CC3CC3)c(C3CC3)n12 [Example 146, ~{N}-[(1~{R})-1-[2-[7-[(3~{R})-3-aminopiperidine-1-carbonyl]-3-cyclopropyl-5-methoxyimidazo [1,2-a]pyridin-2-yl]-1-(cyclopropylmethyl)pyrrolo [2,3-b]pyridin-6-yl]ethyl]-3-hydroxyazetidine-1-carboxamide] | 160 |
| COc1cc(C(=O)N2[C@H]3CC[C@@H]2[C@H](N)C3)cc2nc(-c3cc4ccc([C@@H](C)N5CCCC5)nc4n3CC3CC3)c(C)n12 [Example 272, [(1~{R},2~{R},4~{S})-2-amino-7-azabicyclo [2.2.1]heptan-7-yl]-[2-[1-(cyclopropylmethyl)-6-[(1~{R})-1-pyrrolidin-1-ylethyl]pyrrolo[2,3-b]pyridin-2-yl]-5-methoxy-3-methylimidazo[1,2-a]pyridin-7-yl]methanone] | 134 |
| COc1cc(C(=O)N2[C@H]3CC[C@@H]2[C@H](N)C3)cc2nc(-c3cc4ccc([C@@H](C)NC(=O)CC5(OC)CC5)nc4n3CC3CC3)c(C)n12 [Example 33, ~{N}-[(1~{R})-1-[2-[7-[(1~{R},2~{R}, 4~{S})-2-amino-7-azabicyclo[2.2.1]heptane-7-carbonyl]-5-methoxy-3-methylimidazo [1,2-a]pyridin-2-yl]-1-(cyclopropylmethyl)pyrrolo[2,3-b]pyridin-6-yl]ethyl]-2-(1-methoxycyclopropyl) acetamide] | 69.8 |
| COc1cc(C(=O)N2[C@H]3CC[C@@H]2[C@@H]2NCCO[C@@H]2C3)cc2nc(-c3cc4ccc([C@@H](C)NC(=O)C56CC(F)(C5)C6)nc4n3CC3CC3)c(C)n12 [Example 13, ~{N}-[(1~{R})-1-[1-(cyclopropylmethyl)-2-[5-methoxy-3-methyl-7-[(1~{R},2~{S},7~{R}, 9~{S})-6-oxa-3,12-diazatricyclo [7.2.1.0^{2,7}]dodecane-12-carbonyl]imidazo[1,2-a]pyridin-2-yl]pyrrolo[2,3-b]pyridin-6-yl]ethyl]-3-fluorobicyclo[1.1.1] pentane-1-carboxamide] | 1780 |
| COc1cc(C(=O)N2[C@H]3CC[C@@H]2[C@H](N)C3)cc2nc(-c3cc4ccc([C@@H](C)NC(=O)CCC(=O)NS(=O)(=O)c5ccccc5)nc4n3CC3CC3)c(C)n12 [Example 156, ~{N}-[(1~{R})-1-[2-[7-[(1~{R},2~{R},4~{S})-2-amino-7-azabicyclo[2.2.1]heptane-7-carbonyl]-5-methoxy-3-methylimidazo [1,2-a]pyridin-2-yl]-1-(cyclopropylmethyl)pyrrolo [2,3-b]pyridin-6-yl]ethyl]-~{N}′-(benzenesulfonyl) butanediamide] | 20.3 |

Results, then the compound that gave them:

| IC50 [nM] | Compound |
| --- | --- |
| 332 | COc1cc(C(=O)N2[C@H]3CC[C@@H]2[C@H](N)C3)cc2nc(-c3cc4ccc(-c5cncc(F)c5C)nc4n3CC3CC3)c(C)n12 [Example 564, [(1~{R},2~{R},4~{S})-2-amino-7-azabicyclo [2.2.1]heptan-7-yl]-[2-[1-(cyclopropylmethyl)-6-(5-fluoro-4-methylpyridin-3-yl)pyrrolo [2,3-b]pyridin-2-yl]-5-methoxy-3-methylimidazo[1,2-a]pyridin-7-yl]methanone] |
| 9320 | COc1cc(C(=O)N2[C@H]3CC[C@@H]2[C@H](N)C3)cc2nc(-c3cc4ccc(N5CC(c6ccccc6)CCS5(=O)=O)nc4n3CC3CC3)c(C)n12 (stereo partly shown) [Example 453, [(1~{R},2~{R},4~{S})-2-amino-7-azabicyclo [2.2.1]heptan-7-yl]-[2-[1-(cyclopropylmethyl)-6-(1,1-dioxo-4-phenylthiazinan-2-yl)pyrrolo[2,3-b]pyridin-2-yl]-5-methoxy-3-methylimidazo[1,2-a]pyridin-7-yl]methanone] |
| 10600 | CCOC1C[C@@H]2CN(C(=O)c3cc(OC)n4c(C)c(-c5cc6ccc(N(C(F)F)S(C)(=O)=O)nc6n5CC5CC5)nc4c3)[C@H]1[C@@H]2N (stereo partly drawn) [Example 371, N-[2-[7-[(1S,4R,7R)-7-amino-6-ethoxy-2-azabicyclo[2.2.1]heptane-2-carbonyl]-5-methoxy-3-methyl-imidazo[1,2-a]pyridin-2-yl]-1-(cyclopropylmethyl)pyrrolo [2,3-b]pyridin-6-yl]-N-(difluoromethyl) methanesulfonamide] |
| 458 | COc1cc(C(=O)N2[C@H]3CC[C@@H]2[C@H](N)C3)cc2nc(-c3cc4ccc(C5CCN(C(=O)C(C)(C)C)CC5)nc4n3CC3CC3)c(C)n12 [Example 526, 1-[4-[2-[7-[(1~{R},2~{R}, 4~{S})-2-amino-7-azabicyclo[2.2.1]heptane-7-carbonyl]-5-methoxy-3-methylimidazo[1,2-a]pyridin-2-yl]-1-(cyclopropylmethyl)pyrrolo [2,3-b]pyridin-6-yl]piperidin-1-yl]-2,2-dimethylpropan-1-one] |
| 145 | COc1cc(C(=O)N2[C@H]3CC[C@@H]2[C@H](N)C3)cc2nc(-c3cc4ccc(N5CCCC(C)S5(=O)=O)nc4n3CC3CC3)c(C)n12 (stereo partly shown) [Example 454, [(1~{R},2~{R},4~{S})-2-amino-7-azabicyclo [2.2.1]heptan-7-yl]-[2-[1-(cyclopropylmethyl)-6-(6-methyl-1,1-dioxothiazinan-2-yl)pyrrolo [2,3-b]pyridin-2-yl]-5-methoxy-3-methylimidazo[1,2-a]pyridin-7-yl]methanone] |
| 2490 | CCOC(=O)C1CC1c1c(-c2cc3ccc(N(C(F)F)S(C)(=O)=O)nc3n2CC2CC2)nc2cc(C(=O)N3CCC[C@@H](N)C3)ccn12 (stereo partly shown) [Example 432, ethyl 2-[7-[(3~{R})-3-aminopiperidine-1-carbonyl]-2-[1-(cyclopropylmethyl)-6-[difluoromethyl (methylsulfonyl)amino]pyrrolo[2,3-b]pyridin-2-yl]imidazo[1,2-a]pyridin-3-yl]cyclopropane-1-carboxylate] |
| 101 | COc1cc(C(=O)N2[C@H]3CC[C@@H]2[C@H](N)C3)cc2nc(-c3cc4ccc(C(C)CC(=O)N5CC(F)(F)C5)nc4n3CC3CC3)c(C)n12 (stereo partly shown) [Example 519, 3-[2-[7-[(1~{R},2~{R}, 4~{S})-2-amino-7-azabicyclo[2.2.1]heptane-7-carbonyl]-5-methoxy-3-methylimidazo[1,2-a]pyridin-2-yl]-1-(cyclopropylmethyl)pyrrolo[2,3-b]pyridin-6-yl]-1-(3,3-difluoroazetidin-1-yl) butan-1-one] |
| 655 | CCc1ccc2cc(-c3nc4cc(C(=O)N5[C@H]6CC[C@@H]5[C@H](N)C6)cc(OC)n4c3C)n(CC3CCCC3)c2n1 [Example 509, [(1~{R},2~{R},4~{S})-2-amino-7-azabicyclo [2.2.1]heptan-7-yl]-[2-[1-(cyclopentylmethyl)-6-ethylpyrrolo[2,3-b]pyridin-2-yl]-5-methoxy-3-methylimidazo[1,2-a]pyridin-7-yl]methanone] |
| 19100 | COc1cc(C(=O)N2C[C@@H]3NCCO[C@@H]3C2)cc2nc(-c3cc4ccc(N(C(F)F)S(C)(=O)=O)nc4n3CC3CC3)c(C)n12 [Example 320, ~{N}-[2-[7-[(4~{a}~{S},7~{a}~{R})-3,4,4~{a},5,7,7~{a}-hexahydro-2~{H}-pyrrolo[3,4-b][1,4]oxazine-6-carbonyl]-5-methoxy-3-methylimidazo [1,2-a]pyridin-2-yl]-1-(cyclopropylmethyl)pyrrolo [2,3-b]pyridin-6-yl]-~{N}-(difluoromethyl) methanesulfonamide] |
| 344 | COc1cc(C(=O)N2[C@H]3CC[C@@H]2[C@H](N)C3)cc2nc(-c3cc4ccc(C5CCCN(C(=O)N6CCCC6)C5)nc4n3CC3CC3)c(C)n12 (stereo partly shown) [Example 518, [(1~{R},2~{R},4~{S})-2-amino-7-azabicyclo [2.2.1]heptan-7-yl]-[2-[1-(cyclopropylmethyl)-6-[1-(pyrrolidine-1-carbonyl)piperidin-3-yl]pyrrolo [2,3-b]pyridin-2-yl]-5-methoxy-3-methylimidazo [1,2-a]pyridin-7-yl] methanone] |
